Results: ChEMBL document CHEMBL1201862, “PubChem BioAssay data set” (2004)
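Cells were grown in 96-well plates and exposed to each compound for 48 hours at five concentrations; endpoints were interpolated linearly between bracketing concentrations, or set to the highest concentration if not reached. At the GI50, growth is halved.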 Calls of active or inactive are those of the source. No stated cut-off is given here; in the data, active = GI50 up to about 1.1 µM and inactive = higher.

What was measured:
Experiment in all cases: NCI anticancer screen, dose series, 48 h
COLO 205 = system: COLO 205
SK-MEL-28 = system: SK-MEL-28
HL-60 = system: HL-60
TK-10 = system: TK-10
EKVX = system: EKVX
NCI-H522 = system: NCI-H522
Malme-3M = system: Malme-3M
SNB-78 = system: SNB-78
U-251 = system: U-251
DMS-273 = system: DMS-273
HT-29 = system: HT-29
KM12 = system: KM12
A498 = system: A498
NCI-H460 = system: NCI-H460
CCRF-CEM = system: CCRF-CEM
CAKI-1 = system: CAKI-1
HCC 2998 = system: HCC 2998
UO-31 = system: UO-31
UACC-62 = system: UACC-62
M19-MEL = system: M19-MEL
DLD-1 = system: DLD-1
HCT-116 = system: HCT-116
SK-OV-3 = system: SK-OV-3
OVCAR-4 = system: OVCAR-4
NCI-H23 = system: NCI-H23
SR = system: SR
SK-MEL-5 = system: SK-MEL-5
RXF 631 = system: RXF 631
786-0 = system: 786-0
IGROV-1 = system: IGROV-1
M14 = system: M14
SF-268 = system: SF-268
SN12C = system: SN12C
LOX IMVI = system: LOX IMVI
SF-539 = system: SF-539
HOP-18 = system: HOP-18
SW-620 = system: SW-620
HOP-62 = system: HOP-62
NCI-H226 = system: NCI-H226
UACC-257 = system: UACC-257
DMS-114 = system: DMS-114
MOLT-4 = system: MOLT-4
SK-MEL-2 = system: SK-MEL-2
ACHN = system: ACHN
SF-295 = system: SF-295
KM-20L2 = system: KM-20L2
A549 = system: A549
RPMI-8226 = system: RPMI-8226
RXF 393 = system: RXF 393
K562 = system: K562
OVCAR-5 = system: OVCAR-5
OVCAR-3 = system: OVCAR-3
OVCAR-8 = system: OVCAR-8
SNB-75 = system: SNB-75
LXFL 529 = system: LXFL 529
HCT-15 = system: HCT-15
SNB-19 = system: SNB-19
HOP-92 = system: HOP-92
XF498 = system: XF498

Measured: GI50

CN(C)c1ccc(C(=C(c2ccc(N(C)C)cc2)c2ccc(N(C)C)cc2)c2ccc(N(C)C)cc2)cc1
active: COLO 205 0.568 µM | NCI-H522 0.301 µM | OVCAR-3 0.31 µM
14.4 µM: HCT-15
inactive: SK-MEL-28 14.3 µM | HL-60 5.36 µM | TK-10 16 µM | EKVX 18.7 µM | Malme-3M 15 µM | SNB-78 82.2 µM | U-251 13.9 µM | DMS-273 15.8 µM | HT-29 13.8 µM | KM12 18.5 µM | A498 18.6 µM | NCI-H460 15.8 µM | CCRF-CEM 16.6 µM | CAKI-1 12.4 µM | HCC 2998 16 µM | UO-31 17.4 µM | UACC-62 18.8 µM | M19-MEL 26.5 µM | DLD-1 16.1 µM | HCT-116 13.4 µM | SK-OV-3 20.8 µM | OVCAR-4 20.1 µM | NCI-H23 17 µM | SR 9.04 µM | SK-MEL-5 16.3 µM | RXF 631 13.6 µM | 786-0 11.4 µM | IGROV-1 17.3 µM | M14 6.62 µM | SF-268 21.5 µM | SN12C 16.2 µM | LOX IMVI 13.5 µM | SF-539 13.8 µM | HOP-18 7.01 µM | SW-620 1.87 µM | HOP-62 39.5 µM | NCI-H226 19.8 µM | UACC-257 17.3 µM | DMS-114 15.4 µM | MOLT-4 14.6 µM | SK-MEL-2 12.1 µM | ACHN 11.5 µM | SF-295 13.9 µM | KM-20L2 16.9 µM | A549 16.3 µM | RPMI-8226 7 µM | RXF 393 11.7 µM | K562 8.09 µM | OVCAR-5 > 100 µM | OVCAR-8 19.6 µM | SNB-75 13.5 µM | LXFL 529 12.3 µM | SNB-19 13.8 µM

COC(=O)/C=C(C)/C=C/c1c(C)c(C(C)=O)c(C)n1C
inactive: COLO 205 > 100 µM | HL-60 49.9 µM | TK-10 > 100 µM | EKVX 88.5 µM | NCI-H522 51.1 µM | Malme-3M > 100 µM | SNB-78 > 100 µM | U-251 > 100 µM | DMS-273 > 100 µM | HT-29 > 100 µM | KM12 > 100 µM | HOP-92 18.3 µM | A498 > 100 µM | CCRF-CEM > 100 µM | CAKI-1 63.5 µM | HCC 2998 > 100 µM | UO-31 61.1 µM | UACC-62 96.2 µM | M19-MEL > 100 µM | DLD-1 > 100 µM | HCT-116 > 100 µM | SK-OV-3 > 100 µM | OVCAR-4 80.9 µM | NCI-H23 > 100 µM | RXF 631 > 100 µM | 786-0 > 100 µM | IGROV-1 > 100 µM | M14 > 100 µM | XF498 > 100 µM | SF-268 > 100 µM | SN12C > 100 µM | LOX IMVI > 100 µM | SF-539 > 100 µM | HOP-18 > 100 µM | SW-620 > 100 µM | HOP-62 > 100 µM | NCI-H226 80.4 µM | UACC-257 > 100 µM | MOLT-4 40.3 µM | ACHN > 100 µM | SF-295 > 100 µM | KM-20L2 > 100 µM | A549 > 100 µM | RPMI-8226 57.7 µM | K562 32.1 µM | OVCAR-5 > 100 µM | OVCAR-3 > 100 µM | OVCAR-8 > 100 µM | LXFL 529 88.3 µM | SNB-19 > 100 µM
> 100 µM: HCT-15

N=C(NC(=N)Nc1ccc(S(=O)(=O)Nc2cnc3ccccc3n2)cc1)Nc1ccc(Br)cc1
> 100 µM: HCT-15
inactive: COLO 205 > 100 µM | SK-MEL-28 > 100 µM | TK-10 > 100 µM | EKVX > 100 µM | NCI-H522 > 100 µM | Malme-3M > 100 µM | SNB-78 > 100 µM | U-251 > 100 µM | DMS-273 > 100 µM | HT-29 > 100 µM | KM12 > 100 µM | HOP-92 > 100 µM | A498 > 100 µM | NCI-H460 > 100 µM | CCRF-CEM > 100 µM | CAKI-1 > 100 µM | HCC 2998 > 100 µM | UO-31 > 100 µM | UACC-62 > 100 µM | M19-MEL > 100 µM | DLD-1 > 100 µM | SK-OV-3 > 100 µM | OVCAR-4 > 100 µM | NCI-H23 > 100 µM | SR > 100 µM | SK-MEL-5 > 100 µM | RXF 631 > 100 µM | 786-0 > 100 µM | IGROV-1 > 100 µM | M14 > 100 µM | XF498 > 100 µM | SF-268 > 100 µM | SN12C > 100 µM | LOX IMVI > 100 µM | SF-539 > 100 µM | HOP-18 > 100 µM | SW-620 > 100 µM | HOP-62 > 100 µM | NCI-H226 > 100 µM | UACC-257 > 100 µM | DMS-114 > 100 µM | MOLT-4 > 100 µM | SK-MEL-2 > 100 µM | ACHN > 100 µM | SF-295 > 100 µM | KM-20L2 > 100 µM | A549 > 100 µM | RPMI-8226 > 100 µM | K562 > 100 µM | OVCAR-5 > 100 µM | OVCAR-3 > 100 µM | OVCAR-8 > 100 µM | SNB-75 40.6 µM | LXFL 529 > 100 µM | SNB-19 > 100 µM
